Reference: patent US20240124427A1, “HYDROXYHETEROCYCLOALKANE-CARBAMOYL DERIVATIVES” (Idorsia Pharmaceuticals Ltd, priority 2021, published 2024)
pIC50: −log10 of the molar value.

Biological target: human Gal-3 (hGal-3) (Homo sapiens (Human), UniProt P17931)
Experiment: Competitive binding assay: biotinylated hGal-3 binding to microplate-adsorbed asialofetuin (ASF)
Conditions: Activity on hGal-3; mean values of several measurements; mixture of diastereomers measured where not separated
Procedure: The inhibitory activity of compounds is determined in competitive binding assays. This spectrophotometric assay measures the binding of biotinylated human Gal-3 (hGal-3) or human Gal-1 (hGal-1), respectively, to a microplate-adsorbed glycoprotein, asialofetuin (ASF) (Proc Natl Acad Sci USA. 2013 Mar 26;110(13):5052-7.). Alternatively, and preferably, a human Gal-1 version in which all six cysteines are substituted by serines may be used.
Briefly, compounds are serially diluted in DMSO (working dilutions).
Plates are incubated for 3 hours at 4° C., then washed with cold assay buffer (3×50 uL), incubated for 1 hour with 25 μL/well of a streptavidin-peroxidase solution (diluted in assay buffer to 80 ng/mL) at 4° C., followed by further washing steps with assay buffer (3×50 uL). Finally, 25 μL/well of ABTS substrate is added.
The calculated IC50 values may fluctuate depending on the daily assay performance. Fluctuations of this kind are known to those skilled in the art. IC50 values from several measurements are given as mean values.

human Gal-3 (hGal-3), sequence (P17931 whole entry): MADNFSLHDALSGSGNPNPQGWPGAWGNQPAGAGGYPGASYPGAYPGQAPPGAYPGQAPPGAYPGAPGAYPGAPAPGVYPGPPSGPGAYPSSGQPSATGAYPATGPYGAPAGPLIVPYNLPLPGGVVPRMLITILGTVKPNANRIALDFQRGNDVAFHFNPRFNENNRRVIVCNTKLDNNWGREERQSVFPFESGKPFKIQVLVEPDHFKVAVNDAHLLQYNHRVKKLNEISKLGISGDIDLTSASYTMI

| Compound | pIC50 |
| --- | --- |
| CO[C@@H]1[C@@H](n2cc(-c3ccc(Br)c(F)c3F)nn2)[C@@H](O)[C@@H](CO)O[C@H]1C(=O)N(c1cc(Cl)cc(Cl)c1)[C@@H]1COC[C@H]1O [Example 41, (2R,3R,4S,5R,6R)-4-(4-(4-bromo-2,3-difluorophenyl)-1H-1,2,3-triazol-1-yl)-N-(3,5-dichlorophenyl)-5-hydroxy-6-(hydroxymethyl)-N-((3R,4S)-4-hydroxytetrahydrofuran-3-yl)-3-methoxytetrahydro-2H-pyran-2-carboxamide] | 7.20 |
| CO[C@@H]1[C@@H](n2cc(-c3ccc(Br)c(F)c3F)nn2)[C@@H](O)[C@@H](CO)O[C@H]1C(=O)N(c1cc(Br)cc(C#N)c1)[C@@H]1COC[C@H]1O [Example 42, (2R,3R,4S,5R,6R)-4-(4-(4-bromo-2,3-difluorophenyl)-1H-1,2,3-triazol-1-yl)-N-(3-bromo-5-cyanophenyl)-5-hydroxy-6-(hydroxymethyl)-N-((3R,4S)-4-hydroxytetrahydrofuran-3-yl)-3-methoxytetrahydro-2H-pyran-2-carboxamide] | 7.43 |
| CO[C@@H]1[C@@H](n2cc(-c3ccc(Br)c(F)c3F)nn2)[C@@H](O)[C@@H](CO)O[C@H]1C(=O)N(c1cc(C)cc(Br)c1)[C@@H]1COC[C@H]1O [Example 43, (2R,3R,4S,5R,6R)-4-(4-(4-bromo-2,3-difluorophenyl)-1H-1,2,3-triazol-1-yl)-N-(3-bromo-5-methylphenyl)-5-hydroxy-6-(hydroxymethyl)-N-((3R,4S)-4-hydroxytetrahydrofuran-3-yl)-3-methoxytetrahydro-2H-pyran-2-carboxamide] | 7.48 |
| CO[C@@H]1[C@@H](n2cc(-c3cc(F)c(C)c(F)c3)nn2)[C@@H](O)[C@@H](CO)O[C@H]1C(=O)N(c1cc(Cl)cc(Cl)c1)[C@@H]1COC[C@H]1O [Example 44, (2R,3R,4S,5R,6R)-N-(3,5-dichlorophenyl)-4-(4-(3,5-difluoro-4-methylphenyl)-1H-1,2,3-triazol-1-yl)-5-hydroxy-6-(hydroxymethyl)-N-((3R,4S)-4-hydroxytetrahydrofuran-3-yl)-3-methoxytetrahydro-2H-pyran-2-carboxamide] | 7.09 |
| CO[C@@H]1[C@@H](n2cc(-c3cc(F)c(C)c(F)c3)nn2)[C@@H](O)[C@@H](CO)O[C@H]1C(=O)N(c1cc(Br)cc(Br)c1)[C@@H]1COC[C@H]1O [Example 45, (2R,3R,4S,5R,6R)-N-(3,5-dibromophenyl)-4-(4-(3,5-difluoro-4-methylphenyl)-1H-1,2,3-triazol-1-yl)-5-hydroxy-6-(hydroxymethyl)-N-((3R,4S)-4-hydroxytetrahydrofuran-3-yl)-3-methoxytetrahydro-2H-pyran-2-carboxamide] | 7.23 |
| CO[C@@H]1[C@@H](n2cc(-c3cc(F)c(C)c(F)c3)nn2)[C@@H](O)[C@@H](CO)O[C@H]1C(=O)N(c1cc(Br)cc(C#N)c1)[C@@H]1COC[C@H]1O [Example 46, (2R,3R,4S,5R,6R)-N-(3-bromo-5-cyanophenyl)-4-(4-(3,5-difluoro-4-methylphenyl)-1H-1,2,3-triazol-1-yl)-5-hydroxy-6-(hydroxymethyl)-N-((3R,4S)-4-hydroxytetrahydrofuran-3-yl)-3-methoxytetrahydro-2H-pyran-2-carboxamide] | 7.09 |
| CO[C@@H]1[C@@H](n2cc(-c3cc(F)c(C)c(F)c3)nn2)[C@@H](O)[C@@H](CO)O[C@H]1C(=O)N(c1cc(C)cc(Br)c1)[C@@H]1COC[C@H]1O [Example 47, (2R,3R,4S,5R,6R)-N-(3-bromo-5-methylphenyl)-4-(4-(3,5-difluoro-4-methylphenyl)-1H-1,2,3-triazol-1-yl)-5-hydroxy-6-(hydroxymethyl)-N-((3R,4S)-4-hydroxytetrahydrofuran-3-yl)-3-methoxytetrahydro-2H-pyran-2-carboxamide] | 7.14 |
| CO[C@@H]1[C@@H](n2cc(-c3ccc(C)c(F)c3F)nn2)[C@@H](O)[C@@H](CO)O[C@H]1C(=O)N(c1cc(Cl)cc(Cl)c1)[C@@H]1COC[C@H]1O [Example 48, (2R,3R,4S,5R,6R)-N-(3,5-dichlorophenyl)-4-(4-(2,3-difluoro-4-methylphenyl)-1H-1,2,3-triazol-1-yl)-5-hydroxy-6-(hydroxymethyl)-N-((3R,4S)-4-hydroxytetrahydrofuran-3-yl)-3-methoxytetrahydro-2H-pyran-2-carboxamide] | 7.54 |
| CO[C@@H]1[C@@H](n2cc(-c3ccc(C)c(F)c3F)nn2)[C@@H](O)[C@@H](CO)O[C@H]1C(=O)N(c1cc(Br)cc(C#N)c1)[C@@H]1COC[C@H]1O [Example 49, (2R,3R,4S,5R,6R)-N-(3-bromo-5-cyanophenyl)-4-(4-(2,3-difluoro-4-methylphenyl)-1H-1,2,3-triazol-1-yl)-5-hydroxy-6-(hydroxymethyl)-N-((3R,4S)-4-hydroxytetrahydrofuran-3-yl)-3-methoxytetrahydro-2H-pyran-2-carboxamide] | 7.74 |
| CO[C@@H]1[C@@H](n2cc(-c3ccc(C)c(F)c3F)nn2)[C@@H](O)[C@@H](CO)O[C@H]1C(=O)N(c1cc(C)cc(Br)c1)[C@@H]1COC[C@H]1O [Example 50, (2R,3R,4S,5R,6R)-N-(3-bromo-5-methylphenyl)-4-(4-(2,3-difluoro-4-methylphenyl)-1H-1,2,3-triazol-1-yl)-5-hydroxy-6-(hydroxymethyl)-N-((3R,4S)-4-hydroxytetrahydrofuran-3-yl)-3-methoxytetrahydro-2H-pyran-2-carboxamide] | 7.47 |
| CO[C@@H]1[C@@H](n2cc(-c3cc(F)c(Cl)c(F)c3)nn2)[C@@H](O)[C@@H](CO)O[C@H]1C(=O)N(c1cc(Cl)cc(Cl)c1)[C@@H]1COC[C@H]1O [Example 51, (2R,3R,4S,5R,6R)-4-(4-(4-chloro-3,5-difluorophenyl)-1H-1,2,3-triazol-1-yl)-N-(3,5-dichlorophenyl)-5-hydroxy-6-(hydroxymethyl)-N-((3R,4S)-4-hydroxytetrahydrofuran-3-yl)-3-methoxytetrahydro-2H-pyran-2-carboxamide] | 7.14 |
| CO[C@@H]1[C@@H](n2cc(-c3cc(F)c(Cl)c(F)c3)nn2)[C@@H](O)[C@@H](CO)O[C@H]1C(=O)N(c1cc(Br)cc(Br)c1)[C@@H]1COC[C@H]1O [Example 52, (2R,3R,4S,5R,6R)-4-(4-(4-chloro-3,5-difluorophenyl)-1H-1,2,3-triazol-1-yl)-N-(3,5-dibromophenyl)-5-hydroxy-6-(hydroxymethyl)-N-((3R,4S)-4-hydroxytetrahydrofuran-3-yl)-3-methoxytetrahydro-2H-pyran-2-carboxamide] | 7.07 |
| CO[C@@H]1[C@@H](n2cc(-c3cc(F)c(Cl)c(F)c3)nn2)[C@@H](O)[C@@H](CO)O[C@H]1C(=O)N(c1cc(C)cc(Br)c1)[C@@H]1COC[C@H]1O [Example 54, (2R,3R,4S,5R,6R)-N-(3-bromo-5-methylphenyl)-4-(4-(4-chloro-3,5-difluorophenyl)-1H-1,2,3-triazol-1-yl)-5-hydroxy-6-(hydroxymethyl)-N-((3R,4S)-4-hydroxytetrahydrofuran-3-yl)-3-methoxytetrahydro-2H-pyran-2-carboxamide] | 7.05 |
| CO[C@@H]1[C@@H](n2cc(-c3ccc(Cl)c(Cl)c3)nn2)[C@@H](O)[C@@H](CO)O[C@H]1C(=O)N(c1cc(Cl)cc(Cl)c1)[C@@H]1COC[C@H]1O [Example 55, (2R,3R,4S,5R,6R)-N-(3,5-dichlorophenyl)-4-(4-(3,4-dichlorophenyl)-1H-1,2,3-triazol-1-yl)-5-hydroxy-6-(hydroxymethyl)-N-((3R,4S)-4-hydroxytetrahydrofuran-3-yl)-3-methoxytetrahydro-2H-pyran-2-carboxamide] | 6.79 |
| CO[C@@H]1[C@@H](n2cc(-c3ccc(Cl)c(Cl)c3)nn2)[C@@H](O)[C@@H](CO)O[C@H]1C(=O)N(c1cc(Br)cc(Br)c1)[C@@H]1COC[C@H]1O [Example 56, (2R,3R,4S,5R,6R)-N-(3,5-dibromophenyl)-4-(4-(3,4-dichlorophenyl)-1H-1,2,3-triazol-1-yl)-5-hydroxy-6-(hydroxymethyl)-N-((3R,4S)-4-hydroxytetrahydrofuran-3-yl)-3-methoxytetrahydro-2H-pyran-2-carboxamide] | 6.65 |
| CO[C@@H]1[C@@H](n2cc(-c3ccc(Cl)c(Cl)c3)nn2)[C@@H](O)[C@@H](CO)O[C@H]1C(=O)N(c1cc(Br)cc(C#N)c1)[C@@H]1COC[C@H]1O [Example 57, (2R,3R,4S,5R,6R)-N-(3-bromo-5-cyanophenyl)-4-(4-(3,4-dichlorophenyl)-1H-1,2,3-triazol-1-yl)-5-hydroxy-6-(hydroxymethyl)-N-((3R,4S)-4-hydroxytetrahydrofuran-3-yl)-3-methoxytetrahydro-2H-pyran-2-carboxamide] | 6.82 |
| CO[C@@H]1[C@@H](n2cc(-c3ccc(Cl)c(Cl)c3)nn2)[C@@H](O)[C@@H](CO)O[C@H]1C(=O)N(c1cc(C)cc(Br)c1)[C@@H]1COC[C@H]1O [Example 58, (2R,3R,4S,5R,6R)-N-(3-bromo-5-methylphenyl)-4-(4-(3,4-dichlorophenyl)-1H-1,2,3-triazol-1-yl)-5-hydroxy-6-(hydroxymethyl)-N-((3R,4S)-4-hydroxytetrahydrofuran-3-yl)-3-methoxytetrahydro-2H-pyran-2-carboxamide] | 6.76 |
| CO[C@@H]1[C@@H](n2cc(-c3cc(F)c(F)c(F)c3)nn2)[C@@H](O)[C@@H](CO)O[C@H]1C(=O)N(c1cc(Cl)cc(Cl)c1)[C@H]1CNC[C@@H]1O [Example 59, (2R,3R,4S,5R,6R)-N-(3,5-dichlorophenyl)-5-hydroxy-6-(hydroxymethyl)-N-((3S,4S)-4-hydroxypyrrolidin-3-yl)-3-methoxy-4-(4-(3,4,5-trifluorophenyl)-1H-1,2,3-triazol-1-yl)tetrahydro-2H-pyran-2-carboxamide] | 7.64 |
